From publication PMC3266433 (Antiviral Research, 2011)
Where a name gives a salt, the structure may show the parent alone. Read-outs that look alike come from different tables or passages of the source.

Experiments:
DEN2V NS2B-NS3pro [1] = biological target: T1, DEN2V NS2B-NS3pro (Dengue virus type 2, UniProt P29990); assay: Steady-state kinetics of DEN2V NS2B-NS3pro inhibition; format: biochemical, dengue 2 virus; conditions: BOC-GRR-AMC 0 to 1.2 mM
WNV NS2B-NS3pro = WNV NS2B-NS3pro (West Nile virus, UniProt Q9Q6P4); assay: Steady-state kinetics of WNV NS2B-NS3pro inhibition; format: biochemical
[2] = biological target: T2, bovine pancreatic trypsin (Bos taurus, UniProt P00760); assay: Single-point trypsin inhibition assay to validate selectivity; format: biochemical; conditions: 100 μM compound; BOC-GRR-AMC 30 μM
T2 sequence (P00760 24-246): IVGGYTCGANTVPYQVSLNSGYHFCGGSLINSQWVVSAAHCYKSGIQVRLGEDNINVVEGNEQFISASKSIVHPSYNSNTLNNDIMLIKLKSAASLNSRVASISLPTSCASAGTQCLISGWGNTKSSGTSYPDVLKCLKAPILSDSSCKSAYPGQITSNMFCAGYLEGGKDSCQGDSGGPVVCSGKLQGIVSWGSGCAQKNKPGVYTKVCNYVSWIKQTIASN

DEN2V NS2B-NS3pro [3] = biological target: T1, DEN2V NS2B-NS3pro; assay: Single-point DEN2V NS2B-NS3pro inhibition assay to validate hits; format: biochemical, dengue 2 virus; conditions: single-point validation assay
cells = conditions: ref Yip et al., 2006; cited from earlier work
[4] = read-out: Ki1, DEN2V NS2B-NS3pro
[5] = read-out: Ki2, DEN2V NS2B-NS3pro

Chain of WNV NS2B-NS3pro (Q9Q6P4 1428-1467): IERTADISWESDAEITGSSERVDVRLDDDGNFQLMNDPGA
Chain of WNV NS2B-NS3pro (Q9Q6P4 1506-1683): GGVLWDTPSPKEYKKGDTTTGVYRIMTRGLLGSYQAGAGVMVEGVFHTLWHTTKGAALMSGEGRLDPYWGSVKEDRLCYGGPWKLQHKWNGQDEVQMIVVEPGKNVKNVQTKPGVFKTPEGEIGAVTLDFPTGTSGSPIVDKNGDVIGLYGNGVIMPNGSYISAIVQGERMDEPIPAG
T1 sequence (P29990 1398-1437): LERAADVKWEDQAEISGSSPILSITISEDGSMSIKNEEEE
T1 sequence (P29990 1476-1653): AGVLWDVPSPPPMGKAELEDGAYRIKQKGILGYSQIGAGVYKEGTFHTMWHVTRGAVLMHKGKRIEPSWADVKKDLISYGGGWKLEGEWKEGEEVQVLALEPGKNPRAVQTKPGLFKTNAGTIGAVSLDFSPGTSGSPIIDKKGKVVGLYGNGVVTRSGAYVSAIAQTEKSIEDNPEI

| SMILES | Mechanism (DEN2V NS2B-NS3pro [1]; DEN2V NS2B-NS3pro) | Ki (DEN2V NS2B-NS3pro [1]; [4]) [µM] | Ki (DEN2V NS2B-NS3pro [1]; [5]) [µM] | Mechanism (WNV NS2B-NS3pro; WNV NS2B-NS3pro) | Ki (WNV NS2B-NS3pro; read-out: Ki1, WNV NS2B-NS3pro) [µM] | Ki (WNV NS2B-NS3pro; read-out: Ki2, WNV NS2B-NS3pro) [µM] | trypsin inhibition [2] | DEN2V protease inhibition (in words) (DEN2V NS2B-NS3pro [3]) | Ki (DEN2V NS2B-NS3pro [1]; Ki2, DEN2V NS2B-NS3pro) [µM] | Ki (WNV NS2B-NS3pro; Ki1, WNV NS2B-NS3pro) [µM] | Ki (WNV NS2B-NS3pro; Ki2, WNV NS2B-NS3pro) [µM] | CC50 (cell viability reduced by 50%) (cells) |
| --- | --- | --- | --- | --- | --- | --- | --- | --- | --- | --- | --- | --- |
| CC[C@H](C)[C@H]1O[C@]2(CC[C@@H]1C)C[C@@H]1C[C@@H](C/C=C(\C)[C@@H](O[C@H]3C[C@H](OC)[C@@H](O[C@H]4C[C@H](OC)[C@@H](O)[C@H](C)O4)[C@H](C)O3)[C@@H](C)/C=C/C=C3\CO[C@@H]4[C@H](O)C(C)=C[C@@H](C(=O)O1)[C@]34O)O2 [MS21, Ivermectin] | mixed | 79 ± 21 | 35 ± 4 | mixed | 55 ± 18 | 16 ± 4 | did not inhibit trypsin | inhibited DEN2V protease |  |  |  |  |
| Cc1cc(C(C)(C)CC(C)(C)C)ccc1OCCOCC[N+](C)(C)Cc1ccccc1.[Cl-] [MS22, Methylbenzethonium chloride] | mixed | 322 ± 81 | 160 ± 39 | mixed | 141 ± 20 | 307 ± 80 | did not inhibit trypsin | inhibited DEN2V protease |  |  |  |  |
| CO[C@H]1C[C@H](O[C@@H]2/C(C)=C/C[C@@H]3C[C@@H](C[C@]4(CC[C@H](C)[C@@H](C5CCCCC5)O4)O3)OC(=O)[C@@H]3C=C(C)/C(=N/O)[C@H]4OC/C(=C\C=C\[C@@H]2C)[C@]43O)O[C@@H](C)[C@@H]1O [MS24, Selamectin] | mixed |  |  | mixed |  |  | did not inhibit trypsin | inhibited DEN2V protease | 45 ± 8 | 15 ± 9 | 28 ± 6 |  |
| CCCCC(CC)CNC(=N)NC(=N)NCCCCCCNC(=N)NC(=N)NCC(CC)CCCC (stereo not shown) [MS28, Alexidine hydrochloride] | mixed inhibition mechanism |  |  | mixed |  |  | did not inhibit trypsin | inhibited DEN2V protease | 84 ± 16 | 12 ± 1.2 | 28 ± 5 | low micromolar |
